Data from US20040034078A1 (Agouron Pharmaceuticals, Inc., priority 2002, published 2004).

Target: purified PARP protein (Homo sapiens, UniProt P09874)
Experiment: PARP Enzyme Inhibition Assay
Type: biochemical
Conditions: [32P]NAD+ incorporation, 500 μM NAD+, 25° C.; competitive inhibition fit; read-out: Inhibition Constant Ki
Procedure: The PARP enzyme-inhibiting activities of test compounds were assayed as described by Simonin et al. (J. Biol. Chem. (1993), 268:8529-8535) and Marsischky et al. (J. Biol. Chem. (1995), 270:3247-3254) with minor modifications as follows. Samples (50 μL) containing 20 nM purified PARP protein, 10 μg/mL DNAse I-activated calf thymus DNA (sigma), 500 μM NAD^+, 0.5 μCi [^32P]NAD^+, 2% DMSO, and various concentrations of test compounds were incubated in sample buffer (50 mM Tris pH 8.0, 10 mM MgCl2, 1 mM tris(carboxyethyl)phosphine HCl) at 25° C. for 5 minutes. Under these conditions, the reaction rate was linear for times up to 10 minutes. The reaction was stopped by the addition of an equal volume of ice-cold 40% trichloroacetic acid to the samples, which were then incubated on ice for 15 minutes. The samples were then transferred to a Bio-Dot microfiltration apparatus (BioRad), filtered through Whatman GF/C glass-fiber filter paper, washed 3 times with 150 μL of wash buffer (5% trichloroacetic acid, 1% inorganic pyrophosphate), and dried. [^32P]ADP-Ribose incorporation into the acid-insoluble material was quantitated using a PhosphorImager (Molecular Dynamics) and ImageQuant software. Inhibition constants (Ki) were calculated by non-linear regression analyses using the velocity equation for competitive inhibition (Segel, Enzyme Kinetics: Behavior and Analysis of Rapid Equilibrium and Steady-State Enzyme Systems, John Wiley & Sons, Inc., New York (1975), 100-125). In the case of tight-binding inhibitors, 5 nM enzyme was used and the reaction was incubated at 25° C. for 25 minutes. Ki values for tight-binding inhibitors were calculated using the equation described by Sculley et al. (Biochim. Biophys. Acta (11986), 874:44-53).

Chain of purified PARP protein (P09874 whole entry): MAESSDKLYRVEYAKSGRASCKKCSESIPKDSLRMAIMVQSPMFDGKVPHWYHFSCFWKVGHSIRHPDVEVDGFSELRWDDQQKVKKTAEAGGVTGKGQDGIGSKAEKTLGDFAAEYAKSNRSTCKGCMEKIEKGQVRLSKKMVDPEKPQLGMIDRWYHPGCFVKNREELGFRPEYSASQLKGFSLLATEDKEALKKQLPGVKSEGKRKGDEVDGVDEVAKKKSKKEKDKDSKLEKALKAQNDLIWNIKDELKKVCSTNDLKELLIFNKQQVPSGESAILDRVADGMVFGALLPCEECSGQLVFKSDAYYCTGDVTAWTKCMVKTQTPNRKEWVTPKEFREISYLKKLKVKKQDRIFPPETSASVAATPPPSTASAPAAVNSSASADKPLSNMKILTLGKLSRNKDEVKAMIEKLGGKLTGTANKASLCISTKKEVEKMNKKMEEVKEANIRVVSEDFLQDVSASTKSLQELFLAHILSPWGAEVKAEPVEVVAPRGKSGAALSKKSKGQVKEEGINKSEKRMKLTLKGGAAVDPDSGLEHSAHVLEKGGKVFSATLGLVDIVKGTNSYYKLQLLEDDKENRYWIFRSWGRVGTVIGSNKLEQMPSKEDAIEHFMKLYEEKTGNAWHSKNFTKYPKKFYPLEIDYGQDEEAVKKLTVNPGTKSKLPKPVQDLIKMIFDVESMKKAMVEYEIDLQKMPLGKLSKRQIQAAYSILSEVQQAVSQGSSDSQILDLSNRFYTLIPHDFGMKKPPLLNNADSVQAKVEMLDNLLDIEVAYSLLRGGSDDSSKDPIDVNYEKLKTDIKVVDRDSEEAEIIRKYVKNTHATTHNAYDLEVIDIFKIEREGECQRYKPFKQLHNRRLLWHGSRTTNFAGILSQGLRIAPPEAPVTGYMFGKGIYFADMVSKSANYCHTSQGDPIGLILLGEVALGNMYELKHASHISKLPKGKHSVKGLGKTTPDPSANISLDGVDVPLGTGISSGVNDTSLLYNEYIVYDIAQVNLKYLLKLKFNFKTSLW

Row | Ki | SMILES
1 | 27 ± 4 nM | CSc1nc2c(C(N)=O)cccc2[nH]1 [Compound 52, 2-Methylsulfanyl-3H-benzoimidazolc-4-carboxylic Acid Amide]
2 | 29.5 ± 2.5 nM | NC(=O)Nc1ccc(S(=O)(=O)Cc2nc3c(C(N)=O)cccc3[nH]2)cc1 [Compound 39, 2-(4-Ureido-benzenesulfonylmethyl)-1H-benzoimidazole-4-carboxylic Acid Amide]
3 | 44 ± 4 nM | CN(C)c1nc2c(C(N)=O)cccc2[nH]1 [Compound 57, 2-Dimethylamino-1H-benzoimidazole-4-carboxylic Acid Amide]
4 | 11 ± 2 nM | CSc1ccc(SCc2nc3c(C(N)=O)cccc3[nH]2)cc1 [Compound 14, 2-(4-Methylsulfanyl-phenylsulfanylmethyl)-1H-benzimidazole-4-carboxylic Acid Amide]
5 | 6.5 ± 1.5 nM | COc1ccc(CSc2nc3c(C(N)=O)cccc3[nH]2)cc1 [Compound 43, 2-(4-Methoxy-benzylsulfanyl)-1H-benzimidazole-4-carboxylic Acid Amide]
6 | 85 ± 8 nM | CNc1nc2c(C(N)=O)cccc2[nH]1 [Compound 55, 2-Methylamino-1H-benzoimidazole-4-carboxylic Acid Amide]
7 | 66 ± 8 nM | NC(=O)c1cccc2[nH]c(NCc3ccccc3)nc12 [Compound 58, 2-Benzylamino-1H-benzoimidazole-4-carboxylic Acid Amide]
8 | 9 ± 1 nM | COc1ccc(SCc2nc3c(C(N)=O)cccc3[nH]2)cc1 [Compound 8, 2-(4-Methoxy-phenylsulfanylmethyl)-1H-benzimidazole-4-carboxylic Acid Amide]
9 | 23 ± 4 nM | CCN(CC)CCNc1nc2c(C(N)=O)cccc2[nH]1 [Compound 59, 2-(2-Diethylamino-ethylamino)-1H-benzoimidazole-4-carboxylic Acid Amide]
10 | 102 nM | NC(=O)c1cccc2[nH]c(CSc3nnc(-c4ccccc4)o3)nc12 [Compound 6, 2-(5-Phenyl-[1,3,4]oxadiazol-2-ylsulfanylmethyl)-1H-benzimidazole-4-carboxylic Acid Amide]
11 | 33 ± 3 nM | NC(=O)c1cccc2[nH]c(CSCCN3CCc4ccccc4C3)nc12 [Compound 46, 2-[2-(3,4-Dihydro-1H-isoquinolin-2-yl)-ethylsulfanylmethyl]-1H-benzoimidazole-4-carboxylic Acid Amide]
12 | 14 nM | CNCCN(C)Cc1nc2c(C(N)=O)cccc2[nH]1 [Compound 23, 2-{[Methyl-(2-methylamino-ethyl)-amino]-methyl}-1H-benzimidazole-4-carboxylic Acid Amide]
13 | 8 nM | NC(=O)c1cccc2[nH]c(CSc3ccc([N+](=O)[O-])cc3)nc12 [Compound 3, 2-(4-Nitro-phenylsulfanylmethyl)-1H-benzimidazole-4-carboxylic Acid Amide]
14 | 35 ± 6 nM | CN(CCc1ccccc1)c1nc2c(C(N)=O)cccc2[nH]1 [Compound 54, 2-(Methyl-phenethyl-amino)-1H-benzoimidazole-4-carboxylic Acid Amide]
15 | 38 ± 1 nM | COC(=O)Nc1ccc(SCc2nc3c(C(N)=O)cccc3[nH]2)cc1 [Compound 26]
16 | 45 ± 3 nM | CN(Cc1nc2c(C(N)=O)cccc2[nH]1)Cc1ccccc1O [Compound 15]
17 | 14 ± 3 nM | CN(Cc1nc2c(C(N)=O)cccc2[nH]1)c1ccccc1 [Compound 20, 2-[(Methyl-phenyl-amino)-methyl]-1H-benzimidazole-4-carboxylic Acid Amide]
18 | 17 nM | NC(=O)c1cccc2[nH]c(CN3CCC(N)C3)nc12 (stereo not drawn) [Compound 22, 2-(3-Amino-pyrrolidin-1-ylmethyl)-1H-benzimidazole-4-carboxylic Acid Amide]
19 | 4.7 ± 0.2 nM | NC(=O)c1cccc2[nH]c(SCc3ccc([N+](=O)[O-])cc3)nc12 [Compound 44, 2-(4-Nitro-benzylsulfanyl)-1H-benzimidazole-4-carboxylic Acid Amide]
20 | 33 ± 6 nM | CCCCCCCSCc1nc2c(C(N)=O)cccc2[nH]1 [Compound 11, 2-Heptylsulfanylmethyl-1H-benzimidazole-4-carboxylic Acid Amide]
21 | 17.8 ± 0.8 nM | CCC(=O)Nc1ccc(S(=O)(=O)Cc2nc3c(C(N)=O)cccc3[nH]2)cc1 [Compound 36, 2-(4-Propionylamino-benzenesulfonylmethyl)-1H-benzimidazole-4-carboxylic Acid Amide]

Row | Ki | SMILES
22 | 5 ± 1 nM | CS(=O)(=O)c1ccc(S(=O)(=O)Cc2nc3c(C(N)=O)cccc3[nH]2)cc1 [Compound 35, 2-(4-Methanesulfonyl-benzenesulfonylmethyl)-1H-benzimidazole-4-carboxylic Acid Amide]
23 | 12 ± 1 nM | NC(=O)c1cccc2[nH]c(NCCc3cnc[nH]3)nc12 [Compound 61, 2-[2-(3H-Imidazol-4-yl)-ethylamino]-1H-benzoimidazole-4-carboxylic Acid Amide]
24 | 39 ± 5 nM | NC(=O)c1cccc2[nH]c(CSc3ccc(C(F)(F)F)cc3)nc12 [Compound 13, 2-(4-Trifluoromethyl-phenylsulfanylmethyl)-1H-benzimidazole-4-carboxylic Acid Amide]
25 | 15 ± 3 nM | NC(=O)c1cccc2[nH]c(CNCCCN3CCCC3)nc12 [Compound 16, 2-[(3-Pyrrolidin-1-yl-propylamino)-methyl]-1H-benzimidazole-4-carboxylic Acid Amide]
26 | 36 ± 2 nM | CCC(=O)Nc1ccc(SCc2nc3c(C(N)=O)cccc3[nH]2)cc1 [Compound 24, 2-(4-Propionylamino-phenylsulfanylmethyl)-1H-benzimidazole-4-carboxylic Acid Amide]
27 | 81 ± 10 nM | NC(=O)c1cccc2[nH]c(NCCc3cccs3)nc12 [Compound 60, 2-(2-Thiophen-2-yl-ethylamino)-1H-benzoimidazole-4-carboxylic Acid Amide]
28 | 9 ± 2 nM | NC(=O)c1cccc2[nH]c(CNC3CN4CCC3CC4)nc12 (stereo not drawn) [Compound 21, 2-[(1-Aza-bicyclo[2.2.2]oct-3-ylamino)-methyl]-1H-benzimidazole-4-carboxylic Acid Amide]
29 | 24 ± 3 nM | NC(=O)c1cccc2[nH]c(CS(=O)(=O)c3ccc(N4C(=O)CNC4=O)cc3)nc12 [Compound 51, 2-[4-(2,5-Dioxo-imidazolidin-1-yl)-benzenesulfonylmethyl]-1H-benzoimidazole-4-carboxylic Acid Amide]
30 | 28.5 ± 0.5 nM | COC(=O)Nc1ccc(S(=O)(=O)Cc2nc3c(C(N)=O)cccc3[nH]2)cc1 [Compound 37, [4-(4-Carbamoyl-1H-benzoimidazol-2-ylmethanesulfonyl)-phenyl]-carbamic Acid Methyl Ester]
31 | 48 ± 1 nM | NC(=O)c1cccc2[nH]c(CSCCN3CCOCC3)nc12 [Compound 45, 2-(2-Morpholin-4-yl-ethylsulfanylmethyl)-1H-benzimidazole-4-carboxylic Acid Amide]
32 | 17 ± 1 nM | NC(=O)c1cccc2[nH]c(CSc3ccc(N)cc3)nc12 [Compound 10, 2-(4-Amino-phenylsulfanylmethyl)-1H-benzimidazole-4-carboxylic Acid Amide]
33 | 12 nM | NC(=O)c1cccc2[nH]c(CSc3nc4ccccc4s3)nc12 [Compound 2, 2-(Benzothiazol-2-ylsulfanylmethyl)-1H-benzimidazole-4 carboxylic Acid Amide]
34 | 800 nM | NC(=O)c1cccc2[nH]c(S(=O)(=O)Cc3ccccc3)nc12 [Compound 41, 2-Phenylmethansulfonyl-1H-benzimidazole-4-carboxylic Acid Amide]
35 | 39 nM | NC(=O)c1cccc2[nH]c(CSc3ccc(NC(=O)OCc4ccccc4)cc3)nc12 [Compound 25]
36 | 61 ± 10 nM | CCCCCCCS(=O)(=O)Cc1nc2c(C(N)=O)cccc2[nH]1 [Compound 31, 2-(Heptane-1-sulfonylmethyl)-1H-benzimidazole-4-carboxylic Acid Amide]
37 | 91 ± 3 nM | CN(C)c1ccc(SCc2nc3c(C(N)=O)cccc3[nH]2)cc1 [Compound 12, 2-(4-Dimethylamino-phenylsulfanylmethyl)-1H-benzimidazole-4-carboxylic Acid Amide]
38 | 319 ± 36 nM | NC(=O)c1cccc2[nH]c(N)nc12 [Compound 56, 2-Amino-1H-benzoimidazole-4-carboxylic Acid Amide]
39 | 70 ± 15 nM | NC(=O)c1cccc2[nH]c(SCc3ccccc3)nc12 [Compound 40, 2-Benzylsulfanyl-1H-benzimidazole-4-carboxylic Acid Amide]
40 | 11 ± 1 nM | CC(=O)Nc1nnc(SCc2nc3c(C(N)=O)cccc3[nH]2)s1 [Compound 5, 2-(5-Acetylamino-[1,3,4]thiadiazol-2-ylsulfanylmethyl)-1H-benzimidazole-4-carboxylic Acid Amide]
41 | 13 nM | NC(=O)c1cccc2[nH]c(CSc3ccc(O)cc3)nc12 [Compound 4, 2-(4-Hydroxy-phenylsulfanylmethyl)-1H-benzimidazole-4-carboxylic Acid Amide]
42 | 93 ± 10 nM | NC(=O)c1cccc2c1nc1n2CCSC1 [Compound 47, 3,4-Dihydro-1H-2-thia-4a,9-diaza-fluorene-8-carboxylic Acid Amide]
